# Test results reported in patent US10670605B2, “Cysteine reactive probes and uses thereof” (The Scripps Research Institute, priority 2015, dated 2020).
# Columns and labels:
# EP300 C1738 (Q09472) = EP300 C1738 (Q09472) (Homo sapiens, UniProt Q09472); assay: Competitive isoTOP-ABPP, cell lysates; assay type: binding; details: for isoTOP-ABPP ratio (reactivity profile), Q09472_C1738: 500 μm in-vitro ramos_231; for isoTOP-ABPP reactivity profile ratio, Q09472_C1738: 500 μm, in-vitro_ramos_231
# O114933_C98 [1] = target: T1, O114933_C98 (Homo sapiens, UniProt O14933); assay: Competitive isoTOP-ABPP, cell lysates; assay type: binding
# [2] = target: T2, cysteines in MDA-MB-231 and Ramos cells (Homo sapiens, UniProt P42765); assay: Competitive isoTOP-ABPP in situ (fragment-treated cells); assay type: cell-based; details: 200 μM, insitu
# T2 sequence (P42765 1-397): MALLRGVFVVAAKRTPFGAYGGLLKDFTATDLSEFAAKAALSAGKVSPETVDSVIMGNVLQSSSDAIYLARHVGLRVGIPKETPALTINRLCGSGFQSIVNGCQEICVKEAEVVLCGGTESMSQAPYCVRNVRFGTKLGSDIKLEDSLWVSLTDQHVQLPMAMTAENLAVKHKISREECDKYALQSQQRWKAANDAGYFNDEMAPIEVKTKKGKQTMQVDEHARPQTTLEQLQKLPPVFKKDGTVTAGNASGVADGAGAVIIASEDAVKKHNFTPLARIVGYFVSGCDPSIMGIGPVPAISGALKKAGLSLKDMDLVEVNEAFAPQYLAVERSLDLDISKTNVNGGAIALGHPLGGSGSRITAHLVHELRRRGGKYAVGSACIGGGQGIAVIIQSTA
# [3] = target: T3, cysteines in MDA-MB-231 and Ramos cells (Homo sapiens, UniProt Q96HE7); assay: as above; assay type: cell-based; details: 200 μM, insitu
# T3 sequence (Q96HE7 24-468): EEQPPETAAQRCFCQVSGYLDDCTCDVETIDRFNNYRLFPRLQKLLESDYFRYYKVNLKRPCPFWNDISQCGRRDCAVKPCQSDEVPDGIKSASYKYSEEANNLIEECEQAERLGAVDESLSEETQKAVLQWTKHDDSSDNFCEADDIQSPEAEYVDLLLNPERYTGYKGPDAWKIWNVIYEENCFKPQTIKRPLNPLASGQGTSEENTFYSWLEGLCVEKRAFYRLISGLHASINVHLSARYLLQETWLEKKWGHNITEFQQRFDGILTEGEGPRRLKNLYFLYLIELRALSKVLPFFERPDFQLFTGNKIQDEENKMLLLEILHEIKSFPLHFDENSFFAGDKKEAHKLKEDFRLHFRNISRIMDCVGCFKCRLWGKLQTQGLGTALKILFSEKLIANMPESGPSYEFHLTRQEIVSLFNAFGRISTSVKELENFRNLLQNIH
# O00541_C272 = O00541_C272 (Homo sapiens, UniProt O00541); assay: Competitive isoTOP-ABPP, cell lysates; assay type: binding; details: 500 μm in-vitro ramos_231
# CASP2 C370 (P42575) = target: T4, CASP2 C370 (P42575) (Homo sapiens, UniProt P42575); assay: Competitive isoTOP-ABPP, cell lysates; assay type: binding; details: for isoTOP-ABPP reactivity ratio, P42575_C370: 500 μm, in-vitro_ramos
# T4 sequence (P42575 1-452): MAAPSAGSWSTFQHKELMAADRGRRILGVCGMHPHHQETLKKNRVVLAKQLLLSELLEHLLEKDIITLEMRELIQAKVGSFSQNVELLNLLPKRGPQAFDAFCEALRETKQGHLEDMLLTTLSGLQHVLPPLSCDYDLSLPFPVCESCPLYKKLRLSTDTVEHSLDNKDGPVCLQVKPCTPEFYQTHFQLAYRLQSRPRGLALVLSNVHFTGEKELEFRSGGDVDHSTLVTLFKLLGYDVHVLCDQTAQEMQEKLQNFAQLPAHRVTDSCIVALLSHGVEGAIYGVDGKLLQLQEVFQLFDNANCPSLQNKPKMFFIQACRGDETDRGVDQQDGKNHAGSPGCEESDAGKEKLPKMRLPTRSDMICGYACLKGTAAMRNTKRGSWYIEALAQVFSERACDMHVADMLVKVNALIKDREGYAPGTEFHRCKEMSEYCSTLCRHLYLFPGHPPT
# O114933_C98 [4] = target: T1, O114933_C98; assay: Competitive isoTOP-ABPP, cell lysates; assay type: binding; details: 500 μm
# T1 sequence (O14933 whole entry, the tested form may be a part): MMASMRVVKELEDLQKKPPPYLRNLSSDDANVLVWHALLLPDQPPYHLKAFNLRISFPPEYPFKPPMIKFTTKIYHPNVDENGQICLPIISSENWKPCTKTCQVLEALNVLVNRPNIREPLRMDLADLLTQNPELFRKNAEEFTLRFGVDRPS
# Chain of EP300 C1738 (Q09472) (Q09472 whole entry): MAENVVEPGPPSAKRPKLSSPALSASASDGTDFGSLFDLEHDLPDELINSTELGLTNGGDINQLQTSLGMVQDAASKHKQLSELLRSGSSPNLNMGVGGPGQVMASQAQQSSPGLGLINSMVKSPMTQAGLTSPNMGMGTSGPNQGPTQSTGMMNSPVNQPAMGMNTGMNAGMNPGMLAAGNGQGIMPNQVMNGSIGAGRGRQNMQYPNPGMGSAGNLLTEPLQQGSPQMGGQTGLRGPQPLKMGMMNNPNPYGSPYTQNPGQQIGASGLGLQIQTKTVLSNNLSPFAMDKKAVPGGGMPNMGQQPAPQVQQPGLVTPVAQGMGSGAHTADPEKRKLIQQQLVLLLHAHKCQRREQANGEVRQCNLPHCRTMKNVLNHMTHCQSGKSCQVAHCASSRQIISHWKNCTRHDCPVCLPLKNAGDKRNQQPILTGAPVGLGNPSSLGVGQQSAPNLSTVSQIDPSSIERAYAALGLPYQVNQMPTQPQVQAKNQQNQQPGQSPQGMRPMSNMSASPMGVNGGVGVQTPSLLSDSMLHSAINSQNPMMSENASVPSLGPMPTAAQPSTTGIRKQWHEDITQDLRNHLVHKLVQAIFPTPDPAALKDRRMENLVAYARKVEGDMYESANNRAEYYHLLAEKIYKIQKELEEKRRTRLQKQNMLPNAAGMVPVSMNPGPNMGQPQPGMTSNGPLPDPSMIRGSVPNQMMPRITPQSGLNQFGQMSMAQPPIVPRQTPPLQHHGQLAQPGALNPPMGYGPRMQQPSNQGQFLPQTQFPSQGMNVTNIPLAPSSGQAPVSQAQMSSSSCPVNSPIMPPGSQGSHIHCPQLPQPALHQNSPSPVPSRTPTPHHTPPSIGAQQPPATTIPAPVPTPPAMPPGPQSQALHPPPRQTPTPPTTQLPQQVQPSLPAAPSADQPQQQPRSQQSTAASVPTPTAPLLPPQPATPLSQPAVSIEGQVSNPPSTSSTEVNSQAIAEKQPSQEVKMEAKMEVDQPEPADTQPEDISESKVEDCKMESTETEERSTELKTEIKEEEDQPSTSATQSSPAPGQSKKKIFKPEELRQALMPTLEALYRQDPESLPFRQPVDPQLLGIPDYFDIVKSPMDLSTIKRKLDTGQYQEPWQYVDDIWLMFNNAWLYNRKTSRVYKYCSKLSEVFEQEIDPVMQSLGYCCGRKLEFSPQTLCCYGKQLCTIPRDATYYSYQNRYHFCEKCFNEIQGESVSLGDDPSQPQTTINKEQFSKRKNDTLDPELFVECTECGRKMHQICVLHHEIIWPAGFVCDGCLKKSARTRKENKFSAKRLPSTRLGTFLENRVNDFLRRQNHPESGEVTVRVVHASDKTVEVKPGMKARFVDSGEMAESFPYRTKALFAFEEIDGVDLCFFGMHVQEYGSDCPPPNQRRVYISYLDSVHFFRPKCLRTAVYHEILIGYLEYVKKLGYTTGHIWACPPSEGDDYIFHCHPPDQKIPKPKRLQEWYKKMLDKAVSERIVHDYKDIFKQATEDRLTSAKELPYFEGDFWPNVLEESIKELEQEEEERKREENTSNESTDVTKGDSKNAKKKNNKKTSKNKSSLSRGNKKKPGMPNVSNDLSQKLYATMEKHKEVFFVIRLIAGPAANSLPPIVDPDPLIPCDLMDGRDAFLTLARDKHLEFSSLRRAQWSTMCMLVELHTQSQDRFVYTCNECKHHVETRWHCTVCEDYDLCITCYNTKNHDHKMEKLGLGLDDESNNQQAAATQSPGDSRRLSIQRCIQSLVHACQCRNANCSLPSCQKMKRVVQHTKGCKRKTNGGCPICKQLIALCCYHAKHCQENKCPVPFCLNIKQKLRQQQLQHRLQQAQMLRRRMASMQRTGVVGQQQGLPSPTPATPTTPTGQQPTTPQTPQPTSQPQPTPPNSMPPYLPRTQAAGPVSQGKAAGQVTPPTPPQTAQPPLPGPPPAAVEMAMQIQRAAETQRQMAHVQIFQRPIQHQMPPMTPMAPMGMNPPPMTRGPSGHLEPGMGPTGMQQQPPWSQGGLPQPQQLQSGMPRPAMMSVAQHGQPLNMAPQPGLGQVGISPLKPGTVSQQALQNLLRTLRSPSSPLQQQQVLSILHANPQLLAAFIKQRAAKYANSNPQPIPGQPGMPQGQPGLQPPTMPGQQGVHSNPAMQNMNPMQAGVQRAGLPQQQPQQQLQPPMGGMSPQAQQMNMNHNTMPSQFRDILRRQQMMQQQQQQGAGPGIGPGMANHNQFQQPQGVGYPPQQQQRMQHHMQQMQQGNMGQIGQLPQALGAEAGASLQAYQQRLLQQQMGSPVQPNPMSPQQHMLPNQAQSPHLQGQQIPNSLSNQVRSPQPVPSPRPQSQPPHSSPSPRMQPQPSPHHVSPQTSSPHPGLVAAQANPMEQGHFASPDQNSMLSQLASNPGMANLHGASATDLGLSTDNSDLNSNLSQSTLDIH
# Chain of O00541_C272 (O00541 whole entry, looked up): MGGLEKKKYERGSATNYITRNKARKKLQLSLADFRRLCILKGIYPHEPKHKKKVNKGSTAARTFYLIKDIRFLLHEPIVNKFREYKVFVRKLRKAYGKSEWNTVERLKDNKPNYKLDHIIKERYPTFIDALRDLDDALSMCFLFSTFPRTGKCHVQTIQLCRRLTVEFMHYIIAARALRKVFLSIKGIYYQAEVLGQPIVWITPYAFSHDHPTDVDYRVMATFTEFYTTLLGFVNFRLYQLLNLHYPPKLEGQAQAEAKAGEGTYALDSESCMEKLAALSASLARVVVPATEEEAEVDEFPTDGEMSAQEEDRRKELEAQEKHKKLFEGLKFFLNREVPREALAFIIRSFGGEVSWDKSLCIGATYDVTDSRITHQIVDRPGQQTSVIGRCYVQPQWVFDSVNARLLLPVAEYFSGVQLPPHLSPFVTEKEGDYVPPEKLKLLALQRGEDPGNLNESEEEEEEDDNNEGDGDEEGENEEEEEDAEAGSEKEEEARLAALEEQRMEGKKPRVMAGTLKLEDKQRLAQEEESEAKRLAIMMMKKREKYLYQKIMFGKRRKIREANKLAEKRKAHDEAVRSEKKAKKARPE
smiles,measurement,setting,value
CC(Cl)C(=O)Nc1cc(C(F)(F)F)cc(C(F)(F)F)c1 (centres unmarked) [compound 25],"isoTOP-ABPP ratio (reactivity profile), Q09472_C1738",EP300 C1738 (Q09472),1.6
O=C(/C=C/c1ccccc1)Nc1cc(C(F)(F)F)cc(C(F)(F)F)c1 [compound 26],"isoTOP-ABPP ratio (reactivity profile), O114933_C98",O114933_C98 [1]; 500 μm in-vitro ramos,1.0
CC(C)CCOCCNC(=O)CCl [compound 27],"isoTOP-ABPP ratio (reactivity profile), O114933_C98",O114933_C98 [1]; 500 μm in-vitro ramos,1.0
same,"isoTOP-ABPP ratio (reactivity profile), O114933_C98",O114933_C98 [1]; 500 μm in-vitro ramos_231,1.2
same,isoTOP-ABPP ratio P42765_C92,[2]; 231,1.2
same,isoTOP-ABPP ratio Q96HE7_C241,[3]; 231,0.9
same,"isoTOP-ABPP ratio (reactivity profile), O00541_C272",O00541_C272,1.1
same,"isoTOP-ABPP ratio (reactivity profile), Q09472_C1738",EP300 C1738 (Q09472),1.0
same,"isoTOP-ABPP ratio (reactivity profile), P42575_C370",CASP2 C370 (P42575); 500 μm in-vitro ramos_231,0.9
COc1ccccc1OCCNC(=O)CCl [compound 28],"isoTOP-ABPP ratio (reactivity profile), O114933_C98",O114933_C98 [1]; 500 μm in-vitro ramos,1.2
same,isoTOP-ABPP ratio Q96HE7_C241,[3]; 231,1.1
O=C(CCl)N1CCN(CC(=O)N2CCOCC2)CC1 [compound 29],isoTOP-ABPP ratio P42765_C92,[2]; ramos,0.9
same,isoTOP-ABPP ratio Q96HE7_C37,[3]; ramos,2.1
same,isoTOP-ABPP ratio Q96HE7_C241,[3]; ramos,1.3
same,"isoTOP-ABPP ratio (reactivity profile), O00541_C272",O00541_C272,0.9
same,"isoTOP-ABPP ratio (reactivity profile), Q09472_C1738",EP300 C1738 (Q09472),1.3
CCN(CC)c1ccc(S(N)(=O)=O)cc1NC(=O)CCl [compound 30],"isoTOP-ABPP ratio (reactivity profile), O114933_C98",O114933_C98 [1]; 500 μm in-vitro ramos,1.3
same,"isoTOP-ABPP reactivity ratio, P42575_C370",CASP2 C370 (P42575),4.1
same,"isoTOP-ABPP reactivity ratio, O114933_C98",O114933_C98 [4]; in-vitro_ramos,2.1
C=CC(=O)N(Cc1cccnc1)c1cc(C(F)(F)F)cc(C(F)(F)F)c1 [compound 31],isoTOP-ABPP ratio P42765_C92,[2]; 231,0.8
same,isoTOP-ABPP ratio P42765_C92,[2]; ramos,1.2
same,isoTOP-ABPP ratio Q96HE7_C37,[3]; 231,0.6
same,isoTOP-ABPP ratio Q96HE7_C241,[3]; 231,0.7
CC(C)(C)c1cc(NC(=O)CCl)on1 [compound 32],"isoTOP-ABPP reactivity ratio, O114933_C98",O114933_C98 [4]; in-vitro_ramos,4.6
same,"isoTOP-ABPP reactivity ratio, O114933_C98",O114933_C98 [4]; in-vitro_ramos_231,13.8
O=C(CCl)N(Cc1ccc(F)cc1)C12CC3CC(CC(C3)C1)C2 [compound 34],"isoTOP-ABPP reactivity ratio, O114933_C98",O114933_C98 [4]; in-vitro_ramos_231,0.8
C=CC(=O)N1CCC(c2noc3ccc(F)cc23)CC1 [compound 37],"isoTOP-ABPP reactivity ratio, P42575_C370",CASP2 C370 (P42575),0.7
C=CC(=O)Nc1cc(F)c(N2CCN(C(=O)OC(C)(C)C)CC2)c(F)c1 [compound 38],isoTOP-ABPP ratio P42765_C92,[2]; 231,0.9
same,isoTOP-ABPP ratio Q96HE7_C37,[3]; 231,3.4
same,isoTOP-ABPP ratio Q96HE7_C241,[3]; 231,1.6
same,"isoTOP-ABPP reactivity ratio, O114933_C98",O114933_C98 [4]; in-vitro_ramos,1.7
same,"isoTOP-ABPP reactivity ratio, O114933_C98",O114933_C98 [4]; in-vitro_ramos_231,1.6
C=CC(=O)Nc1cc(C)c(Br)cc1C [compound 40],"isoTOP-ABPP reactivity ratio, P42575_C370",CASP2 C370 (P42575),2.7
same,"isoTOP-ABPP reactivity ratio, O114933_C98",O114933_C98 [4]; in-vitro_ramos,1.3
Cc1ccc(C=C(C#N)C(=O)NCCN2CCOCC2)cc1 [compound 41],isoTOP-ABPP ratio P42765_C92,[2]; 231,1.1
same,isoTOP-ABPP ratio Q96HE7_C37,[3]; 231,0.4
same,isoTOP-ABPP ratio Q96HE7_C241,[3]; 231,0.7
same,"isoTOP-ABPP reactivity ratio, P42575_C370",CASP2 C370 (P42575),1.4
same,"isoTOP-ABPP reactivity ratio, O114933_C98",O114933_C98 [4]; in-vitro_ramos,1.1
same,"isoTOP-ABPP reactivity ratio, O114933_C98",O114933_C98 [4]; in-vitro_ramos_231,1.2
COc1cc(NC(=O)CCl)cc(OC)c1 [compound 43],"isoTOP-ABPP reactivity profile ratio, Q09472_C1738",EP300 C1738 (Q09472),2.2
CC1CCc2ccccc2N1C(=O)CCl (centres unmarked) [compound 45],isoTOP-ABPP ratio P42765_C92,[2]; 231,15.1
same,isoTOP-ABPP ratio Q96HE7_C37,[3]; 231,20.0
same,isoTOP-ABPP ratio Q96HE7_C241,[3]; 231,2.1
O=C(CCl)Nc1cccc2ncccc12 [compound 51],isoTOP-ABPP ratio P42765_C92,[2]; 231,1.1
same,isoTOP-ABPP ratio Q96HE7_C241,[3]; 231,1.7
O=C(CCl)Nc1ccc(-c2ccccc2)cc1 [compound 52],"isoTOP-ABPP reactivity profile ratio, Q09472_C1738",EP300 C1738 (Q09472),1.1
